Legend:
[1] = system: PDE4; test: PDE4 Assay Procedure ([3H]-cAMP SPA); assay type: biochemical
Protocol: Compounds to be tested were resuspended in DMSO at a stock concentration of 1 mM. The compounds were tested at different concentrations varying from 10 μM to 10 pM to calculate an IC50. These dilutions were done in 96-well plates. In some cases, plates containing diluted compounds were frozen before being assayed. In these cases, the plates were thawed at room temperature and stirred for 15 minutes.
Ten microliters of the diluted compounds were poured into a “low binding” assay plate. Eighty microliters of reaction mixture containing 50 mM Tris pH 7.5, 8.3 mM MgCl2, 1.7 mM EGTA, and 15 nM [3H]-cAMP were added to each well. The reaction was initiated by adding ten microliters of a solution containing PDE4. The plate was then incubated under stirring for 1 hour at room temperature. After incubation the reaction was stopped with 50 microlitres of SPA beads, and the reaction was allowed to incubate for another 20 minutes at room temperature before measuring radioactivity using standard instrumentation.
The reaction mixture was prepared by adding 90 ml of H2O to 10 ml of 10× assay buffer (500 mM Tris pH 7.5, 8.3 mM MgCl2, 17 mM EGTA), and 40 microlitres 1 μCi/μL [3H]-cAMP. SPA beads solution was prepared by adding 500 mg to 28 ml H2O for a final concentration of 20 mg/ml beads and 18 mM zinc sulphate.

Row | IC50 [1] | melting point | SMILES
1 | 0.59 nM |  | CCn1nc(-c2ccncc2)c(C(C)=O)c(Nc2cccc3ccccc23)c1=O [Example 32, 5-Acetyl-2-ethyl-4-(1-naphthylamino)-6-pyridin-4-ylpyridazin-3(2H)-one]
2 | 16 nM |  | CCn1nc(-c2ccncc2)c(C(C)=O)c(Nc2ccc(C(=O)O)cc2)c1=O [Example 41, 4-[(5-acetyl-2-ethyl-3-oxo-6-pyridin-4-yl-2,3-dihydropyridazin-4-yl)amino]benzoic acid]
3 | 5.2 nM |  | CCn1nc(-c2cccs2)c(C(C)=O)c(Nc2cccc(Cl)c2)c1=O [Example 52, 5-Acetyl-4-[(3-chlorophenyl)amino]-2-ethyl-6-thien-2-ylpyridazin-3(2H)-one]
4 | 24 nM |  | CCn1nc(-c2ccccc2)c(C(C)=O)c(Nc2cccnc2)c1=O [Example 63, 5-Acetyl-2-ethyl-6-phenyl-4-(pyridin-3-ylamino)pyridazin-3(2H)-one]
5 | 0.11 nM |  | CCn1nc(-c2ccncc2)c(C(C)=O)c(Nc2ccccc2C)c1=O [Example 33, 5-Acetyl-2-ethyl-4-[(2-methylphenyl)amino]-6-pyridin-4-ylpyridazin-3(2H)-one]
6 | 0.3 nM |  | CCn1nc(-c2ccccc2)c(C(C)=O)c(Nc2cccc3ncccc23)c1=O [Example 82, 5-Acetyl-2-ethyl-6-phenyl-4-(quinolin-5-ylamino)pyridazin-3(2H)-one]
7 | 6.8 nM |  | CCn1nc(-c2cccnc2)c(C(C)=O)c(Nc2cccc3ccccc23)c1=O [Example 4, 5-Acetyl-2-ethyl-4-(1-naphthylamino)-6-pyridin-3-ylpyridazin-3(2H)-one]
8 | 2.6 nM |  | CCn1nc(-c2ccccc2)c(C(C)=O)c(Nc2cccc3cnccc23)c1=O [Example 84, 5-Acetyl-2-ethyl-4-(isoquinolin-5-ylamino)-6-phenylpyridazin-3(2H)-one]
9 | 11 nM |  | CC(=O)c1c(-c2cccc(F)c2)nn(CC2CC2)c(=O)c1Nc1cccnc1 [Example 92, 5-Acetyl-2-cyclopropylmethyl-6-(3-fluorophenyl)-4-(pyridin-3-ylamino)-pyridazin-3(2H)-one]
10 | 10 nM |  | CCn1nc(-c2ccccc2)c(C(C)=O)c(Nc2cccc3cccnc23)c1=O [Example 67, 5-Acetyl-2-ethyl-6-phenyl(quinolin-8-ylamino)pyridazin-3(2H)-one]
11 |  | 245 to 246.1 °C | CCn1nc(-c2cccc(C)c2)c(C(C)=O)c(Nc2cccc3ncccc23)c1=O [Example 195, 5-Acetyl-2-ethyl-6-(3-methylphenyl)-4-(quinolin-5-ylamino)pyridazin-3(2H)-one]
12 | 9.4 nM |  | CC(=O)c1c(-c2cccc(F)c2)nn(C(C)C)c(=O)c1Nc1cccnc1 [Example 91]
13 | 4.5 nM |  | CCn1nc(-c2ccncc2)c(C(C)=O)c(Nc2cccc(Cl)c2)c1=O [Example 31, 5-Acetyl-4-[(3-chlorophenyl)amino]-2-ethyl-6-pyridin-4-ylpyridazin-3(2H)-one]
14 | 8.3 nM |  | CCn1nc(-c2ccc(F)cc2)c(C(C)=O)c(Nc2cccnc2)c1=O [Example 93, 5-Acetyl-6-(4-fluorophenyl)-2-ethyl 4-(pyridin-3-ylamino)-pyridazin-3(2H)-one]
15 | 2.3 nM |  | CCn1nc(-c2cccnc2)c(C(C)=O)c(Nc2cccc(F)c2)c1=O [Example 1, 5-Acetyl-2-ethyl-4-[(3-fluorophenyl)amino]-6-pyridin-3-ylpyridazin-3(2H)-one]

Row | SMILES | IC50 [1] | melting point
16 | CCn1nc(-c2ccccc2)c(C(C)=O)c(Nc2cccc3[nH]ccc23)c1=O [Example 69, 5-Acetyl-2-ethyl-4-(1H-indol-4-ylamino)-6-phenylpyridazin-3(2H)-one] | 2 nM | 

— US7491722B2, “Pyridazin-3(2H)-one derivatives” (Laboratorios Almirall S.A., priority 2002, dated 2009)
